Usually pIC50 stands for the negative decadic logarithm of the IC50, by convention in mol/L. Higher therefore signals a low IC50.

pIC50: −log10 of the molar value.

The values that follow come from BindingDB's records for doi:10.1021/jm00102a020 (Merck Research Laboratories, 1993).

Chain of Integrin alpha-IIb/beta-3 (P05106 27-788 limits assumed): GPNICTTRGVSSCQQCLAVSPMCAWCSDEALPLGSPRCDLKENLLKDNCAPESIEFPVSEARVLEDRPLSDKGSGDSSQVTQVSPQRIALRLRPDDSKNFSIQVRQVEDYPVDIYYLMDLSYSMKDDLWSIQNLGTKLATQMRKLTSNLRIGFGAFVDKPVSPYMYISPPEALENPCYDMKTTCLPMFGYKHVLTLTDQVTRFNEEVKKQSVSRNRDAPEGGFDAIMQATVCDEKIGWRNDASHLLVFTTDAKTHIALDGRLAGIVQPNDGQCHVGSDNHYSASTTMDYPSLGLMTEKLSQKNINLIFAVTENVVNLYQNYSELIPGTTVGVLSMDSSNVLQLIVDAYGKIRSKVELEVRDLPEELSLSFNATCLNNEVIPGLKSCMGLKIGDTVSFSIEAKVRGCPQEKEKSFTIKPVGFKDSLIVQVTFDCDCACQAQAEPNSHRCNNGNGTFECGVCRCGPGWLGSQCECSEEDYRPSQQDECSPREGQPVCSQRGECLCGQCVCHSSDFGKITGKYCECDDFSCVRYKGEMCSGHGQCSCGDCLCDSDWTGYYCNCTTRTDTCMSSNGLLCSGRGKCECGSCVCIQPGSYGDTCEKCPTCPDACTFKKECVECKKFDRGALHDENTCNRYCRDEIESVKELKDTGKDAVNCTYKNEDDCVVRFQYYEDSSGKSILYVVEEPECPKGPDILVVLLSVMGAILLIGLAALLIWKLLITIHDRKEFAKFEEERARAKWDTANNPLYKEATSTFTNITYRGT
Chain of Integrin alpha-IIb/beta-3 (P08514 32-887 limits assumed): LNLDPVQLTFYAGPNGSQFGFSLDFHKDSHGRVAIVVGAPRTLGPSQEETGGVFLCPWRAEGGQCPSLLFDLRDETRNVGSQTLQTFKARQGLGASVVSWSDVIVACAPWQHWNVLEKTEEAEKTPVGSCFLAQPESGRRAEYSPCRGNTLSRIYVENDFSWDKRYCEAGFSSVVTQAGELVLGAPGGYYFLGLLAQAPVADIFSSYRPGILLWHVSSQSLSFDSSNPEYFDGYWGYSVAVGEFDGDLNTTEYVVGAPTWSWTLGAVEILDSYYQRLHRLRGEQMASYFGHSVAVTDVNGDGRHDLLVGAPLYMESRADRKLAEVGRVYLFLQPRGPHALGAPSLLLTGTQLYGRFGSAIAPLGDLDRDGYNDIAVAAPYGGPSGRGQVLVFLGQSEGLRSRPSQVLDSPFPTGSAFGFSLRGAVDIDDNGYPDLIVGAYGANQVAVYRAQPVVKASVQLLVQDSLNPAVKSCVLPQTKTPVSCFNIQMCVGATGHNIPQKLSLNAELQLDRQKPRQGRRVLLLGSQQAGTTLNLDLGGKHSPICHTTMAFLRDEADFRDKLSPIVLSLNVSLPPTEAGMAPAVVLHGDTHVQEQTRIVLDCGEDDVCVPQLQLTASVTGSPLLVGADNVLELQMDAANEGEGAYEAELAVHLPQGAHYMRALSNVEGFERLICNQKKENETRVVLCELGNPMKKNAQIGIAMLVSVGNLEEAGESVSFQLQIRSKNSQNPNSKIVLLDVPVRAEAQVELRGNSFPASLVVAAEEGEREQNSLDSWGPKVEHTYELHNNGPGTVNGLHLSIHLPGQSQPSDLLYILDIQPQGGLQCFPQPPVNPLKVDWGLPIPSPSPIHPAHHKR
Chain of Integrin alpha-IIb/beta-3 (P08514 891-1039 limits assumed): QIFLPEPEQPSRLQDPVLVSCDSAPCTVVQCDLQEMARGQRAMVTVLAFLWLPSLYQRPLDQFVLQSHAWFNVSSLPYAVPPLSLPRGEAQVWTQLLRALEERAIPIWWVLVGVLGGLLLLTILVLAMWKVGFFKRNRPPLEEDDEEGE

This experiment addresses Integrin alpha-IIb/beta-3 (Homo sapiens, UniProt P08514+P05106). As to the kind of experiment: ChEBML_90196. The text has this: In vitro inhibition of ADP-mediated human gel filtered platelet aggregation.
In turn, `NCCCCCCOc1ccc(CCC(=O)O)cc1` showed a pIC50 of less than 4.00. In turn, `CCCCCC(=O)N[C@@H](Cc1ccc(OCCCCCCN)cc1)C(=O)O` gave a negative logarithm of the IC50 (pIC50) of 5.42. For `NCCCCCCOc1ccc(C[C@H](NS(=O)(=O)Cc2ccccc2)C(=O)O)cc1` the value was 5.70; for `O=C(N[C@@H](Cc1ccc(OCCCc2ccccc2)cc1)C(=O)O)OCc1ccccc1`, less than 3.00.

The compound `CC(C)(C)NCC(O)COc1ccc(C[C@H](NC(=O)OCc2ccccc2)C(=O)O)cc1` (some centres not stated) showed a pIC50 of 4.57. The compound `NCCCCCCCCOc1ccc(C[C@H](NC(=O)OCc2ccccc2)C(=O)O)cc1` [3-[4-(8-Amino-octyloxy)-phenyl]-2-benzyloxycarbonylamino-propionic acid] showed a pIC50 of 4.40. Compound `CC(C)(C)NCCCOc1ccc(C[C@H](NC(=O)OCc2ccccc2)C(=O)O)cc1` [(S)-2-Benzyloxycarbonylamino-3-[4-(3-tert-butylamino-propoxy)-phenyl]-propionic acid] had a pIC50 of 4.66.
